The source of these data is patent US20250339434A1, “TREATING NEUROLOGIC DISEASES” (priority 2024, published 2025).

For data set [1] the following is noted: cited from earlier work.
The test system of data set [2] is individuals with ASD. The experiment in a line: Safety and tolerability in individuals with ASD. The data set is classed as in vivo, human. As to conditions: vulnerable population (ASD).
Data set [3] has as its system patients with ASD. Nature of the data set: ABC scores in patients with ASD tested for FRAAs and sFBPs: effect of leucovorin and concurrent treatments. As to conditions: for Effect on ABC Hyperactivity: concurrent treatments. It is filed as in vivo, human. The protocol: (§1) In other tests, many patients with ASD were tested for FRAAs and sFBPs to guide clinical management by identifying the clinical characteristics associated with these biomarkers and to determine whether the biomarkers could predict treatment response.
(§2) The following two tables indicate some treatments and a statistically significant effect of concurrent treatments. β indicates an effectiveness on a certain outcome measure. In Table 2 and 3, a negative value for beta indicates a positive result.

Data set [4] deals with sFBP positive human subjects (patients) with ASD. Nature of the data set: Aberrant Behavior Checklist (ABC) scores before and after leucovorin in sFBP positive patients. It is filed as in vivo. From the text: FIGS. 3A-F includes six charts that indicate results of treatments when using the process (100) of FIG. 1 using the Aberrant Behavioral Checklist (ABC, which is known in the field, so will not be explained in detail herein). The patients are the same as the patients in FIGS. 2A-F. Note that the scores/scales are different in FIGS. 3A-F, but the patients are the same and measured over the same time period as FIGS. 2A-F. The difference in ABC scores was compared before and after the start of leucovorin treatment. The Total score decreased by 20.2 (5.9) raw points with leucovorin treatment [F(1,44.8)=11.92, p=0.001, Cohen's d′=0.9]. The Irritability subscale decreased by 5.7 (2.1) raw points with leucovorin treatment [F(1,44.8)=7.56, p<0.01, Cohen's d′=0.6]. […] The Stereotypy subscale decreased by 2.2 (1.0) raw points with leucovorin treatment [F(1,46.4)=4.56, p<0.05, Cohen's d′=0.5]. The Hyperactivity subscale decreased by 6.8 (1.6) raw points with leucovorin treatment [F(1,43.8)=18.34, p<0.001, Cohen's d′=1.1]. […] To get an estimate of the timing of the effect of leucovorin treatment, linear regression models were used to determine the change in ABC scores with each day of leucovorin treatment, as shown in FIGS. 3A-F. The Total score decreased by 0.04 (0.01) raw points per day on leucovorin [F(1,46.3)=12.67, p=0.001]. The Irritability subscale decreased by 0.008 (0.004) raw points per day on leucovorin [F(1,46.5)=5.33, p<0.05]. The Social-Withdrawal subscale decreased by 0.01 (0.003) raw points per day on leucovorin [F(1,44.9)=13.85, p<0.001]. The Stereotypy subscale decreased by 0.004 (0.002) raw points per day on leucovorin [F(1,48.1)=6.17, p<0.05]. The Hyperactivity subscale decreased by 0.01 (0.003) raw points per day on leucovorin [F(1,44.6)=20.56, p<0.001].

Data set [5] shares this test system. Nature of the data set: Social Responsiveness Scale (SRS) scores before and after leucovorin in sFBP positive patients. It is filed as in vivo. The protocol: Turning now to FIGS. 2A-F, six figures indicate results of treatments when using the process (100) of FIG. 1. In sFBP positive human subjects (patients) started on the standard dose of leucovorin (25 mg twice a day) but in 6 of 12 (50%), the dose of leucovorin was increased to 50 mg twice a day in order to obtain an effective response as judged by the ongoing clinical evaluation. The number of days treated with leucovorin ranged from 92 to 1022 days with an average (SD) number of 584 (333) days of treatment. The graphs of FIGS. 2A-F illustrate the patients' responses using a Social Responsiveness Scale (SRS, which is known in the field, so will not be explained in detail herein). The difference in SRS scores was compared before and after the start of leucovorin treatment. The Total score decreased by 7.4 (1.4) t-score points with leucovorin treatment [F(1,44.6)=28.03, p<0.001, Cohen's d′=1.4]. The Awareness subscale decreased by 8.0 (1.9) t-score points with leucovorin treatment [F(1,45.9)=18.01, p<0.001, Cohen's d′=1.1]. The Cognition subscale decreased by 8.5 (1.8) t-score points with leucovorin treatment [F(1,45.4)=21.64, p<0.001, Cohen's d′=1.2]. The Communication subscale decreased by 8.9 (1.6) t-score points with leucovorin treatment [F(1,44.6)=31.22, p<0.001, Cohen's d′=1.4]. The Motivation subscale decreased by 6.9 (2.1) t-score points with leucovorin treatment [F(1,44.8)=10.91, p<0.01, Cohen's d′=0.9]. The Mannerisms subscale decreased by 4.3 (1.9) t-score points with leucovorin treatment [F(1,45.0)=[…], p=0.03, Cohen's d′=0.6]. To determine an estimate of the timing of the effect of leucovorin treatment, linear regression models were used to determine the change in SRS scores with each day of leucovorin treatment, as shown in FIGS. 2A-F. The Total score decreased by 0.01 (0.002) t-score points per day on leucovorin [F(1,46.6)=25.68, p<0.001]. The Awareness subscale decreased by 0.014 (0.003) t-score points per day on leucovorin [F(1,47.2)=19.74, p<0.001]. The Cognition subscale decreased by 0.013 (0.003) t-score points per day on leucovorin [F(1,47.4)=17.49, p<0.001]. The Communication subscale decreased by 0.013 (0.003) t-score points per day on leucovorin [F(1,46.2)=21.48, p<0.001]. The Motivation subscale decreased by 0.01 (0.004) t-score points per day on leucovorin [F(1,46.1)=8.27, p<0.01]. The Mannerisms subscale decreased by 0.008 (0.003) t-score points per day on leucovorin [F(1,46.2)=6.34, p=0.02].

Data set [6] concerns patients with ASD. The experiment in a line: SRS scores in patients with ASD tested for FRAAs and sFBPs: effect of leucovorin and concurrent treatments. The data set is classed as in vivo, human. As to conditions: for Association of concurrent treatment with SRS scores: concurrent treatments. The protocol:
as §1
This is due to two opposing effects. It appears that those with higher binding FRAAs that were not treated with leucovorin had more severe ASD symptoms than those with low binding FRAA titers. In contrast, those with higher FRAA titers who were treated with leucovorin appear to have less severe ASD symptoms than those that were treated and had lower binding FRAA titers. […] Those patients with some of the highest binding FRAA titers can have, on average, a eight-to-sixteen point favorable response on SRS subscales, an amount that can move them into more favorable severity categories.
FIGS. 8A-E are a collection of five charts illustrating results of factoring in a titer of binding autoantibody with the folate treatment when applied to several patients, where the results are shown on a Social Responsiveness Scale.
as §2

In data set [7] the test system is individuals with ASD. As to conditions: cited from earlier work.
The mark [8] stands for this setting: effect size, before vs after leucovorin.
[9] abbreviates: sFBP positive patients, before vs after start of leucovorin.
Where [10] appears, read: effect of concurrent treatment, negative beta = positive result.

Where “and” joins values, the source holds several entries; their conditions need not be identical. Identical values can stand only once. Entries after “also recorded” stand apart in the source; their conditions may differ. Marks after values point to notes of the source that are not given here.

In the case of `Nc1nc2c(c(=O)[nH]1)N(C=O)C(CNc1ccc(C(=O)N[C@@H](CCC(=O)O)C(=O)O)cc1)CN2` (mixture of isomers) [leucovorin, folinic acid], the “Absorption following oral administration” value in data set [1] is “rapidly absorbed”. Moreover, the Safety and tolerability entry in data set [2] was “extremely safe and well-tolerated”. Also, in data set [3], the “Effect on ABC Irritability” value was “only improved Irritability; also recorded: overall improving irritability”. In addition, in data set [4] (setting [8]), the “Cohen's d′, ABC Hyperactivity subscale” value came out at 1.1; the “Cohen's d′, ABC Irritability subscale” value was found to be 0.6; the “Cohen's d′, ABC Social Withdrawal subscale” value was 0.9; the “Cohen's d′, ABC Stereotypy subscale” value was determined as 0.5. In addition, in data set [4] (setting [8]), the “Cohen's d′, ABC Total score” value is 0.9. Moreover, the “Duration of treatment required for the 5.7 improvement in irritability on the ABC” value in data set [4] (individuals positive for sFBPs) is “two years”. Further, in data set [4] (linear regression model), the “ABC Hyperactivity subscale decrease per day on leucovorin” value is recorded as 0.01 (0.003) raw points per day, the “ABC Inappropriate Speech subscale change per day on leucovorin” value was “did not change significantly”, the “ABC Irritability subscale decrease per day on leucovorin” value is listed as 0.008 (0.004) raw points per day and the “ABC Social-Withdrawal subscale decrease per day on leucovorin” value is reported as 0.01 (0.003) raw points per day. Further, in data set [4] (linear regression model), the “ABC Stereotypy subscale decrease per day on leucovorin” value is reported as 0.004 (0.002) raw points per day and the “ABC Total score decrease per day on leucovorin” value is 0.04 (0.01) raw points per day. In data set [4] (setting [9]), the “ABC Hyperactivity subscale decrease with leucovorin treatment” value is reported as 6.8 (1.6) raw points; the “ABC Inappropriate Speech subscale change with leucovorin treatment” value is reported as “did not change significantly”; the “ABC Irritability subscale decrease with leucovorin treatment” value is 5.7 (2.1) raw points and 5.7 raw points; the ABC Social Withdrawal subscale decrease with leucovorin treatment was determined as 5.8 raw points. For the same compound, in data set [4] (setting [9]), the “ABC Stereotypy subscale decrease with leucovorin treatment” value is reported as 2.2 (1.0) raw points and the “ABC Total score decrease with leucovorin treatment” value is listed as 20.2 (5.9) raw points. Further, in data set [5] (setting [8]), the “Cohen's d′, SRS Awareness subscale” value turned out to be 1.1; the “Cohen's d′, SRS Cognition subscale” value stood at 1.2; the “Cohen's d′, SRS Communication subscale” value is given as 1.4; the “Cohen's d′, SRS Mannerisms subscale” value came to 0.6. For the same compound, in data set [5] (setting [8]), the “Cohen's d′, SRS Motivation subscale” value is reported as 0.9 and the “Cohen's d′, SRS Total score” value was 1.4. Also, the “Duration of treatment necessary for the 7-point improvement in the SRS” value in data set [5] (individuals positive for sFBPs) was “two years”. In data set [5] (linear regression model), the “SRS Awareness subscale decrease per day on leucovorin” value is on record as 0.014 (0.003) t-score points per day, the “SRS Cognition subscale decrease per day on leucovorin” value is on record as 0.013 (0.003) t-score points per day, the “SRS Communication subscale decrease per day on leucovorin” value is on record as 0.013 (0.003) t-score points per day and the “SRS Mannerisms subscale decrease per day on leucovorin” value is on record as 0.008 (0.003) t-score points per day. Also, in data set [5] (linear regression model), the “SRS Motivation subscale decrease per day on leucovorin” value is 0.01 (0.004) t-score points per day and the “SRS Total score decrease per day on leucovorin” value is on record as 0.01 (0.002) t-score points per day. Moreover, in data set [5] (sFBP positive patients), the “SRS score decrease with leucovorin (summary)” value is “about 7 points”. For the same compound, the “SRS Total score decrease with leucovorin treatment” value in data set [5] (sFBP positive patients (12), before vs after start of leucovorin 25 or 50 mg twice a day, 92 to 1022 days, value (spread)) is given as 7.4 (1.4) t-score points. Also, in data set [5] (setting [9]), the “SRS Awareness subscale decrease with leucovorin treatment” value is on record as 8.0 (1.9) t-score points, the “SRS Cognition subscale decrease with leucovorin treatment” value is on record as 8.5 (1.8) t-score points, the “SRS Communication subscale decrease with leucovorin treatment” value was 8.9 (1.6) t-score points and the “SRS Mannerisms subscale decrease with leucovorin treatment” value is given as 4.3 (1.9) t-score points. The “SRS Motivation subscale decrease with leucovorin treatment” value in data set [5] (setting [9]) is recorded as 6.9 (2.1) t-score points. Also, the “SRS t-scores / ASD symptoms as binding FRAA titers increase, with leucovorin treatment” value in data set [6] (dependence on binding FRAA titer) is “less severe ASD symptoms when treated with leucovorin; also recorded: better (lower scores)”. Also, the “Favorable response on SRS subscales in patients with some of the highest binding FRAA titers” value in data set [6] (on average, highest binding FRAA titers) is recorded as “eight-to-sixteen”. Moreover, the “Effect on core ASD symptoms” value in data set [6] (patients with ASD) is given as “improves core ASD symptoms”.
With `C[N+](C)(C)CC(O)CC(=O)[O-]` (centres unmarked) [Carnitine], the “Effect on ABC Hyperactivity” value is listed as “improve ABC Hyperactivity” in data set [3] and “better score on ABC Hyperactivity” in data set [3] (listed as carnitine). Besides, in data set [6] (setting [10]), the “β, SRS Motivation” value is listed as −2.3 (1.0)*. Besides, in data set [7], the “Effect on core ASD symptoms in two DBPC studies” value is reported as “improve core ASD symptoms”.
Take `C/C1=C2/[N-][C@H]([C@H](CC(N)=O)[C@@]2(C)CCC(=O)NC[C@@H](C)OP(=O)([O-])O[C@H]2[C@@H](O)[C@@H](n3cnc4cc(C)c(C)cc43)O[C@@H]2CO)[C@]2(C)N=C(/C(C)=C3N=C(/C=C4N=C1[C@@H](CCC(N)=O)C\4(C)C)[C@@H](CCC(N)=O)[C@]\3(C)CC(N)=O)[C@@H](CCC(N)=O)[C@]2(C)CC(N)=O.[CH3-].[Co+3]` [mB12 SQ, Methyl-cobalamin]: the “β, SRS Cognition” value in data set [6] (setting [10]) is −4.3 (1.3)***. In addition, the “β, SRS Motivation” value in data set [6] (setting [10]) is listed as −3.2 (1.3)*. Moreover, in data set [6] (effect of concurrent treatment, negative beta = positive result, value (spread)), the “β, SRS Total” value was −2.8 (1.1)**. For the same compound, the “Association of concurrent treatment with SRS scores” value in data set [6] (patients with ASD) was “improve the SRS Total score, as well as all subscales except SRS Awareness”; in data set [6] (patients with ASD, listed as mB12 Subcutaneous), “better SRS scores on a few subscales”.
